Tests used:
[1] = tested on: E. coli clinical isolates; test: MIC on panel of E. coli clinical isolates; format: cell-based; conditions: for MIC50 / MIC90: Escherichia coli; for MIC50: 50% clinical isolates; for MIC90: 90% clinical isolates
[2] = tested on: ATCC25922; test: MIC on E. coli ATCC25922; format: cell-based; conditions: strain ATCC25922
Procedure: The inoculum used for all the experiments is derived from a single seed lot that is maintained as glycerol stocks at −80 °C and are sub cultured on LB plate for isolated colonies. Single colony of each strain is grown in M9 medium. All test compound stocks and dilutions are prepared in DMSO. Serial two-fold dilutions of compounds are prepared separately, with the concentrations ranging from 2 mg/mL to 0.015 mg/mL. To 150 µl (3–7 × 10^5 CFU/ml) of bacterial culture in 96 well microtitre plates, 3 μL compound from each of the dilutions is added to respective wells to obtain final concentrations ranging from 40 µg/mL to 0.3 µg/mL of the test compounds. Media control, culture control and appropriate reference drug controls are included. […] Growth is monitored by checking absorbance at 600 nm (A600). […] The samples from MIC and above concentrations are plated for MBC (Minimum Bactericidal Concentration). The samples are diluted 1:10 and plated on LB agar plates. […] The killing kinetics is determined by enumerating survivors at various time points following compound exposure. E. coli cells (~10^7 CFU/ml; A600 of 0.1) are treated with various concentrations (40 µg/mL to 0.3 µg/mL) of compounds in a 96-well microtitre plate. At various time intervals (0 to 8 h), 30 μl volumes of treated cultures are serially diluted and plated on LB agar plates. […] Data is expressed as the log10 CFU for each drug treatment.

CNC(C)C1CCC(N)C(OC2C(N)CC(N)C(OC3OCC(C)(O)C(NC)C3O)C2O)O1 (centres unmarked) [gentamicin, reference compound]
32 µg/mL: MIC ([1]; strain SEC040) | MIC ([1]; strain SEC060) | MIC ([1]; strain SEC071)
16 µg/mL: MIC50 ([1]; 75 E.coli clinical isolates) | MIC ([1]; strain SEC077)
8 µg/mL: MIC ([1]; strain SEC054) | MIC ([1]; strain SEC062)
> 64 µg/mL: MIC90 ([1]; 75 E.coli clinical isolates) | MIC ([1]; strain SEC001) | MIC ([1]; strain SEC003) | MIC ([1]; strain SEC005) | MIC ([1]; strain SEC007) | MIC ([1]; strain SEC008) | MIC ([1]; strain SEC011) | MIC ([1]; strain SEC013) | MIC ([1]; strain SEC014) | MIC ([1]; strain SEC015) | MIC ([1]; strain SEC017) | MIC ([1]; strain SEC019) | MIC ([1]; strain SEC021) | MIC ([1]; strain SEC022) | MIC ([1]; strain SEC024) | MIC ([1]; strain SEC025) | MIC ([1]; strain SEC031) | MIC ([1]; strain SEC033) | MIC ([1]; strain SEC035) | MIC ([1]; strain SEC042) | MIC ([1]; strain SEC043) | MIC ([1]; strain SEC044) | MIC ([1]; strain SEC047) | MIC ([1]; strain SEC050) | MIC ([1]; strain SEC053) | MIC ([1]; strain SEC061) | MIC ([1]; strain SEC064) | MIC ([1]; strain SEC065) | MIC ([1]; strain SEC068) | MIC ([1]; strain SEC069) | MIC ([1]; strain SEC070) | MIC ([1]; strain SEC072) | MIC ([1]; strain SEC073) | MIC ([1]; strain SEC074) | MIC ([1]; strain SEC075) | MIC ([1]; strain SEC078) | MIC ([1]; strain SEC079)
2 µg/mL: MIC ([1]; strain SEC020) | MIC ([1]; strain SEC026) | MIC ([1]; strain SEC028) | MIC ([1]; strain SEC034) | MIC ([1]; strain SEC039) | MIC ([1]; strain SEC051) | MIC ([1]; strain SEC052) | MIC ([1]; strain SEC055) | MIC ([1]; strain SEC059) | MIC [2]
4 µg/mL: MIC ([1]; strain SEC002) | MIC ([1]; strain SEC004) | MIC ([1]; strain SEC006) | MIC ([1]; strain SEC012) | MIC ([1]; strain SEC016) | MIC ([1]; strain SEC023) | MIC ([1]; strain SEC029) | MIC ([1]; strain SEC032) | MIC ([1]; strain SEC036) | MIC ([1]; strain SEC037) | MIC ([1]; strain SEC038) | MIC ([1]; strain SEC041) | MIC ([1]; strain SEC045) | MIC ([1]; strain SEC046) | MIC ([1]; strain SEC048) | MIC ([1]; strain SEC049) | MIC ([1]; strain SEC057) | MIC ([1]; strain SEC058) | MIC ([1]; strain SEC067) | MIC ([1]; strain SEC076) | MIC ([1]; strain SEC080)
0.5 µg/mL: MIC ([1]; strain SEC018) | MIC ([1]; strain SEC063)

C[C@@H](O)[C@H]1C(=O)N2C(C(=O)O)=C(S[C@@H]3CN[C@H](C(=O)N(C)C)C3)[C@H](C)[C@H]12 [meropenem, reference compound]
0.06 µg/mL: MIC50 ([1]; 75 E.coli clinical isolates) | MIC ([1]; strain SEC005) | MIC ([1]; strain SEC011) | MIC ([1]; strain SEC012) | MIC ([1]; strain SEC013) | MIC ([1]; strain SEC014) | MIC ([1]; strain SEC017) | MIC ([1]; strain SEC018) | MIC ([1]; strain SEC019) | MIC ([1]; strain SEC029) | MIC ([1]; strain SEC031) | MIC ([1]; strain SEC036) | MIC ([1]; strain SEC038) | MIC ([1]; strain SEC040) | MIC ([1]; strain SEC043) | MIC ([1]; strain SEC045) | MIC ([1]; strain SEC047) | MIC ([1]; strain SEC055) | MIC ([1]; strain SEC058) | MIC ([1]; strain SEC059) | MIC ([1]; strain SEC060) | MIC ([1]; strain SEC064) | MIC ([1]; strain SEC067) | MIC ([1]; strain SEC072) | MIC ([1]; strain SEC074) | MIC ([1]; strain SEC076) | MIC ([1]; strain SEC079) | MIC [2]
2 µg/mL: MIC ([1]; strain SEC042) | MIC ([1]; strain SEC069)
8 µg/mL: MIC90 ([1]; 75 E.coli clinical isolates)
0.03 to 8 µg/mL: MIC Range ([1]; 75 E.coli clinical isolates)
0.13 µg/mL: MIC ([1]; strain SEC002) | MIC ([1]; strain SEC008) | MIC ([1]; strain SEC026) | MIC ([1]; strain SEC044) | MIC ([1]; strain SEC057) | MIC ([1]; strain SEC073) | MIC ([1]; strain SEC075)
> 4 µg/mL: MIC ([1]; strain SEC001) | MIC ([1]; strain SEC003) | MIC ([1]; strain SEC004) | MIC ([1]; strain SEC015) | MIC ([1]; strain SEC020) | MIC ([1]; strain SEC041) | MIC ([1]; strain SEC063) | MIC ([1]; strain SEC068) | MIC ([1]; strain SEC078)
0.25 µg/mL: MIC ([1]; strain SEC023) | MIC ([1]; strain SEC024) | MIC ([1]; strain SEC025) | MIC ([1]; strain SEC048)
0.03 µg/mL: MIC ([1]; strain SEC006) | MIC ([1]; strain SEC007) | MIC ([1]; strain SEC016) | MIC ([1]; strain SEC021) | MIC ([1]; strain SEC022) | MIC ([1]; strain SEC028) | MIC ([1]; strain SEC032) | MIC ([1]; strain SEC033) | MIC ([1]; strain SEC034) | MIC ([1]; strain SEC037) | MIC ([1]; strain SEC039) | MIC ([1]; strain SEC046) | MIC ([1]; strain SEC050) | MIC ([1]; strain SEC051) | MIC ([1]; strain SEC054) | MIC ([1]; strain SEC061) | MIC ([1]; strain SEC062) | MIC ([1]; strain SEC065) | MIC ([1]; strain SEC070) | MIC ([1]; strain SEC071) | MIC ([1]; strain SEC080)
1 µg/mL: MIC ([1]; strain SEC052) | MIC ([1]; strain SEC053)
0.5 µg/mL: MIC ([1]; strain SEC035) | MIC ([1]; strain SEC049) | MIC ([1]; strain SEC077)

— paper PMC5940854, “Nitrothiophene carboxamides, a novel narrow spectrum antibacterial series: Mechanism of action and Efficacy” (Scientific Reports, 2018)
